From US20070207981A1, “MICRO-ENCAPSULATION OF VOLATILE COMPOUNDS INTO CYCLODEXTRINS: A NEW TECHNOLOGY TO REDUCE POST HARVEST LOSSES” (priority 2006, published 2007)

How the values were obtained:
[1] = system: Penicillium sp.; test: Growth of Penicillium sp. in vitro in the presence of pure volatiles; assay type: cell-based; conditions: for Penicillium fungal development delayed: after 7 days at 23° C.
Method: (§1) In accordance with still another embodiment of the present invention, growth of Penicillium sp. and Aspergillus Niger was evaluated in vitro in the presence of hexanal, acetaldehyde and 2E-hexenal. The fungistatic and fungicidal effects of the pure volatiles were evaluated and presented below.

[2] = system: Colletotrichum acutatum; test: Growth of C. acutatum exposed to volatile vapour in closed jars at 23° C.; conditions: 7 days at 23° C.; for concentration that completely inhibited / avoided C. acutatum growth: headspace concentration
From the text: (§2) Fourteen-day-old surface-plated cultures of Colletotricumn acutatum, Alternaria alternata and Botrytis cinerea in plastic Petri dishes (9 cm diameter), were filled aseptically with PDA medium (Potato Dextrose Agar) (Sigma-Aldrich Corp. (Saint Louis, Mo.)), and mixed with a few drops of sterile distilled water. Ten mL of each were collected inside plastic tubes which were shaken hard to dislodge spores from mycelia. The spores and cell suspensions were then filtered with sterile cheesecloth to remove debris such as mycelia and condensed-agar fragments and the aliquot was concentrated to 10^6 c.f.u./mL (spore*mL^−1), which were counted by the Neubauer improved method (Bright-Line Hemacytometer, Hausser Scientific, Horsham, Pa.).
(§3) Smaller Petri dishes (5.5 cm diameter) were also filled aseptically with PDA. Upon solidification of the agar medium, a drop of spores of each suspension was inserted as a drop in the centre of the well with a 100 μL Oxford Autoclavable Benchmate Pipette (Nichiryo, Japan). Finally, the Petri dishes were placed inside 1 L-glass jars which were closed with twist-off tops and stored at 23° C. These were used as the controls.
(§4) Other jars were modified for inserting and withdrawing of the volatiles obtained from the bioassays. For that, jars tops were modified by introducing a septum through which the volatile was inserted on a small piece of glass which was suspended 4 cm above the bottom. The same device was used to withdraw samples during storage. […]
(§5) Radial growth of the cultures in controls and treated samples were evaluated daily by measuring the surface area of the plate occupied by the colony during incubation or by measuring the length of the colony. […] Each assay was tested in triplicate and the area means calculated were analyzed statistically by analysis of variance. The delay in fungal growth was expressed as direct radial growth of cultures in cm^2 or cm as a percentage of colony growth by comparing samples exposed to the anti-fungal treatments with the controls. […]

[3] = system: Alternaria alternata; test: Growth of A. alternata exposed to volatile vapour in closed jars at 23° C.; conditions: 7 days at 23° C.; for concentration that completely inhibited / avoided A. alternata growth: headspace concentration
From the text: as §2, §3, §4, §5

[4] = system: Aspergillus Niger; test: Growth of Aspergillus niger in vitro in the presence of pure volatiles; assay type: cell-based; conditions: 4 μL of volatile, after 7 days at room temperature
Method: as §1

[5] = system: Botrytis cinerea; test: Growth of B. cinerea exposed to volatile vapour in closed jars at 23° C.; conditions: 7 days at 23° C.
From the text: as §2, §3, §4, §5

[6] = oral, mammalian; cited from earlier work

Row | Compound | Penicillium growth ([1]; 1 μL of volatile, 1 week at 23° C.) | concentration that completely inhibited / avoided C. acutatum growth [2] [μg/mL air] | concentration that completely inhibited / avoided A. alternata growth [3] [μg/mL air] | A. niger delay in growth [4] | prevention of B. cinerea growth ([5]; any amount tested) | ORL-MAM LD50 [6] [mg/kg] | concentration that completely inhibited C. acutatum growth, equivalent ppm of volatile [2] [ppm] | Penicillium fungal development delayed ([1]; insertion of 4 μL of volatile) | Penicillium fungal development delayed ([1]; insertion of 6 μL of volatile) [%] | concentration that completely inhibited A. alternata growth, equivalent ppm of volatile [3] [ppm] | concentration that completely inhibited B. cinerea growth, equivalent ppm of volatile [5] [ppm] | concentration that completely inhibited B. cinerea growth ([5]; headspace concentration) [μg/mL air]
1 | CCC/C=C/C=O [2E-hexenal] | not able to grow |  |  |  |  |  |  |  |  |  |  | 
2 | CC=O [acetaldehyde] |  | 0.44 | 0.10 | over 66% | able to prevent | 250 |  |  |  |  |  | 
3 | CCCCCC=O [hexanal] |  | 0.91 | 1.91 |  |  |  | 1.5 | over 18% | > 74 | 7 | 4 | 1.05
